Laboratory results reported in paper PMC6342294, “Asymmetric diversification of mating pheromones in fission yeast” (PLoS Biology, 2019).

Columns and labels:
[1] = biological target: T1, Map3 (Schizosaccharomyces pombe, UniProt P31397); experiment: Shmooing assay of synthetic M-factor peptides on P cells lacking rgs1+ (TS405); type: cell-based, S. pombe; conditions: EMM2−N
T1 construct: an M-factor-sensitive strain lacking the rgs1^+ gene [53]; endogenous in cells; host or cells: S. pombe heterothallic haploid P cells lacking rgs1+ (TS405)
T1 sequence (P31397 1-365): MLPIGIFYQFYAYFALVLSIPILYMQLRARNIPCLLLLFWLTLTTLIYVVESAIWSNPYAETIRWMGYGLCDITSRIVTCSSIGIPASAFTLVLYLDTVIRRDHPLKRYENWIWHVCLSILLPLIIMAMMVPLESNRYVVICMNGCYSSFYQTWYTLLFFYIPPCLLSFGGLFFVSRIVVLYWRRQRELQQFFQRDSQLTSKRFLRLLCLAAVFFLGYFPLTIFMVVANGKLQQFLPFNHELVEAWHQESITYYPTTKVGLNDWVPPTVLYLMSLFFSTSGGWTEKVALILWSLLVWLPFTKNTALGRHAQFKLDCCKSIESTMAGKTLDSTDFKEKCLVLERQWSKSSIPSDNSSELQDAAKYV
Procedure: Under these conditions, approximately 40% of cells treated with Sp-M-factor peptide underwent shmoo formation, whereas no cells treated with So-M-factor peptide underwent shmooing (S5B Fig). When the concentration of So-M-factor was raised to 1,000 nM, the cells underwent shmoo elongation a little (S5B Fig).
P-factor and M-factor peptides were chemically synthesized (Eurofins) for the shmooing assay. The purity of the preparations was over 95% (HPLC). P-factor was dissolved in dimethyl sulfoxide (DMSO) at a concentration of 500 μM, and M-factor was dissolved in methanol (MeOH) at a concentration of 1 mM. The stock solutions were diluted with culture medium to the appropriate dilution ratio. For the assay, heterothallic haploid cells were grown in YE medium overnight, washed with sterilized water three times, and then resuspended in EMM2−N medium at a cell density of 4 × 10^7 cells/ml. The cells were treated with the synthetic pheromone and incubated for exactly 24 hours with gentle shaking.
To assess whether Mam2 could recognize different P-factors, a P-factor sensitive strain lacking the sxa2^+ gene (TS402) was used. The cells were incubated with synthetic P-factors at different concentrations (0, 10, 100, and 1,000 nM) for 24 hours and observed by a DIC microscope. Images were recorded, and the L and W of a cell were measured to determine the L/W ratio. […] In all cases, at least 100 cells each were measured. […] The cells were treated with synthetic M-factors at different concentrations (0, 100, and 1,000 nM) for 24 hours, and analyzed, as described above.
Supplementary file pbio.3000101.s005.tif: S5 Fig Effects of mating pheromones of S. octosporus on S. pombe cells. […] The ability of each M-factor peptide to induce shmooing was assessed by the L/W ratio of a cell, as described in S3 Fig. (C) Comparison of the amino sequences of Sp-P-factors and So-P-factors. […] The shmooing assay was evaluated as described in S3 Fig. EMM2−N, Edinburgh Minimal Medium 2 lacking nitrogen; L, length; M, Minus; P, Plus; rgs, regulator of G-protein signaling; So, S. octosporus; Sp, S. pombe; W, width. […]

[2] = system: S. pombe cells; experiment: Quantitative assay of zygote formation (mating efficiency), S. pombe strains; type: cell-based; conditions: peptide produced by engineered strain; mfm1 gene integrated in M-factorless strain FY23412; MEA, 2 days, 30 °C; mean ± SD of triplicate
Procedure: The resulting strains each produced one of the six P-factors. The mating efficiency of these strains was assessed by the frequency of zygotes. […] To determine whether the order of nucleotide sequences encoding mature P-factor affects zygote frequency, we also introduced a map2 gene carrying a permuted sequence of repeats (P2-P3-P2-P1) into the FY23418 strain. Similar to the strain with the native sequence, this strain also mated at high frequency (74.2% ± 1.7%) (Fig 2D); therefore, the effect of peptide-coding position appears small.
Next, we assessed whether the pheromone peptides of S. octosporus are effective on S. pombe cells. […] Next, we replaced the Sp-M-factor–encoding sequence in the mfm1^+ gene with the So-M-factor–encoding sequence (mfm1^So). […] In short, S. pombe P cells were unable to mate with M cells producing So-M-factor. […] We also replaced the So-P-factor–encoding sequence (7 repeats) in the So-map2^+ gene with the Sp-P-factor–encoding sequence (4 repeats) (So-map2^Sp) in S. octosporus cells. […]
Cells grown on YEA plates overnight were resuspended in sterilized water to a cell density of 1 × 10^8 cells/ml. […] The percentage of zygotes was calculated, as described previously. In all cases, triplicate samples (at least 300 cells each) were counted, and the mean and standard deviation (SD) were calculated.

[3] = TS405 P cells (rgs1Δ), 100 nM synthetic M-factor, one day

Row | Substance | Shmooing at 100 nM (in words) [1, 3] | Shmoo elongation at 1,000 nM (in words) ([1]; TS405 P cells (rgs1Δ), 1,000 nM synthetic M-factor, 24 hours) | Mating efficiency (zygotes) of S. pombe strain producing only this M-factor [2] | Proportion of cells that underwent shmoo formation, 100 nM [1, 3]
1 | YQPKPPAMC^Far-OCH3 [So-M-factor, putative M-factor of S. octosporus, farnesylated methylated nonapeptide] | no cells | a little | completely sterile | –
2 | YTPKVPYMC^Far-OCH3 [Sp-M-factor, S. pombe mature M-factor, farnesylated and methylated peptide of nine amino acids, reference compound] | – | – | 72.1% ± 3.7% | approximately 40%
